Data published in patent US11622988B2, “Method for reducing fat accumulation by using tetramethylisoscutellarein” (TCI CO., LTD., priority 2018, dated 2023).

System: mouse bone marrow stromal cell OP9
Assay: Oil-red O staining of fat accumulation in differentiated OP9 cells
Format: cell-based
Conditions: 10 μg/mL, incubated 7-10 days, O.D. 510 nm
Description: First, 8×10^4 mouse bone marrow stromal cell OP9 (ATCC® CRL-2749™) was seeded with 500 μL of pre-adipocyte expansion medium (supplemented with 90% minimum essential medium alpha medium (Gibco), […] (Gibco) and 1% penicillin/streptomycin (Gibco)) in a 24-well plate, and incubated at 37° C. for 7 days. Fresh differentiation medium (supplemented with 90% minimum essential medium alpha medium, 20% fetal bovine serum, and 1% penicillin/streptomycin) was replaced every three days. After 7 days, lipid droplet formation was observed using microscopy (ZEISS) to make sure the cells are fully differentiated.
Thereafter, five groups of OP9 cells (i.e. an experimental group, three comparative groups (comparative group 1 to comparative group 3) and a control group) were prepared. […]
The oil droplet was dissolved using 100% isopropanol, and the plate was put on shaker and incubation for 10 min. A volume of 100 μL was taken to 96-well plate for measuring the O.D ratio (510 nm) with the ELISA reader (BioTek).
The statistical significance of the differences between each group was determined by Student's t-test in Microsoft Excel. […]

COc1ccc(-c2cc(=O)c3c(OC)cc(OC)c(OC)c3o2)cc1 [tetramethylisoscutellarein]
oil red relative percentage, lower than the control group: 28%
